# Paper PMC8195987, “Structural basis for plazomicin antibiotic action and resistance” (Communications Biology, 2021)
# Biological target: T1, AAC(2′)-Ia (Providencia stuartii, UniProt Q52424)
# T1 construct: synthetic gene in pET-15b, E. coli BL21(DE3); N-terminal His-tag removed with thrombin; homodimer
# Experiment: X-ray crystal structure
# Type: binding
# Conditions: product complex with acetylated plazomicin, 1.95 Å; formed from acetyl-CoA during crystallization; active site
# T1 sequence (Q52424 whole entry): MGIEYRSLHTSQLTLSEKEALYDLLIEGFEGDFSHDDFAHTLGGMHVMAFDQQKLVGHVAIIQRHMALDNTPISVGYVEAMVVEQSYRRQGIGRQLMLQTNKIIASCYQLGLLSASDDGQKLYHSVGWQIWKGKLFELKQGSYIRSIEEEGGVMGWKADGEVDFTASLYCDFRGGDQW
structure (smiles),measurement,value
CC(C)(COP(=O)(O)OP(=O)(O)OC[C@H]1O[C@@H](n2cnc3c(N)ncnc32)[C@H](O)[C@@H]1OP(=O)(O)O)[C@@H](O)C(=O)NCCC(=O)NCCS [CoA],X-ray crystal structure,identified the enzymatically modified plazomicin and CoA in the active site
